Laboratory results published in PMC10445084, “Green synthesis, anti-proliferative evaluation, docking, and MD simulations studies of novel 2-piperazinyl quinoxaline derivatives using hercynite sulfaguanidine-SA as a highly efficient and reusable nanocatalyst” (RSC Advances, 2023).

Experiments:
[1] = system: HFF (human foreskin fibroblasts) normal cells; experiment: MTT cytotoxicity assay, HFF normal cells; format: cell-based; conditions: Fibroblast, 48 h incubation
Protocol: (§1) The tested cells were cultured in medium and dialyzed fetal bovine serum (FBS) and then as suspended germs in Minimum Essential Medium (MEM) were seeded into 96-well plates (at the density of 10 × 10^4 viable cells per well). After 24 h incubation in 5% CO2 at 37 °C and cell attachment. Then the evaluated compounds (at 0.1–250 μg ml^−1 concentrations) were added to the cultured cells and incubated for another 24/48 h.[18,19] After washing of the cell containing plates with […], 20 μl of fresh 4,5-(dimethylthiazol-2-yl)-2,5-diphenyl tetrazolium bromide (MTT) solution (5 mg ml^−1) was added to each well, and incubated with cells for additional 4 h in the same conditions. Then, the medium was discarded and approximately 70 μl of DMSO was used and the resulted solution was vigorously mixed to dissolve and remove the residual tetrazolium and purple formazan crystals in each well. Next, the absorbance of each well was measured at 492 nm and 630 nm (for absorbance of MTT formazan and the reference wavelength respectively) with an ELISA plate reader. Stock solutions of all the tested compounds were prepared in DMSO, while the final dilutions were made with distilled water in order to maintain a maximum concentration of 0.5% DMSO per well. All the evaluated compounds were also tested for cytotoxicity on HFF normal cells at the above-mentioned concentrations and in the same conditions and incubation periods of time. Curves were fit using Graph Pad Prism as described in the Methods section.[19]
(§2) All the evaluated N-Mannich bases (2a–2d, 3a–3h and 4a–4d) were investigated for anti-proliferative activity against two cancer cell lines, HCT116 (human colon cancer) and KOV3 (human ovarian carcinoma). HFF (human foreskin fibroblasts) normal cells were also tested to determine the selectivity of their cytotoxic effects in killing cancer over normal cells. […] After 24 and 48 h of incubation, cell viability was measured by the [3-(4,5-dimethylthiazol-2-yl)-2,5-diphenyltetrazolium bromide] (MTT) colorimetric assay.[34] At the end of each incubation period, the IC50 value and cell viability for each N-Mannich base were calculated in different concentrations (0.15–2.4 μM) and determined graphically as established in Fig. 3. […] A DMSO equivalent control (n = 2 ± SEM) was also included for each cell line tested. Standard graph was plotted by taking concentration of the drug in X axis and relative cell viability in Y axis (cell viability (%) = mean OD/control OD × 100%) in Graph Pad Prism 8.
(§3) 2.5. Biological evaluations: In vitro cytotoxicity
(§4) This rapid assay is based on the reduction of tetrazolium salt to dark blue formazan product by mitochondrial enzymes of living, not dead cells after 24 and 48h exposure of cells to tested compounds at different concentrations. DMSO (with the less concentration than 1%) was the solvent in this biological test. serial concentrations were made by diluting stock solution of each compound (50μM) with culture media (RPMI 1640). […]

[2] = system: HCT116; experiment: MTT cytotoxicity assay, HCT116 colon cancer cells; format: cell-based, human; conditions: 48 h incubation
Protocol: as §1, §2, §3, §4

[3] = system: SKOV3; experiment: MTT cytotoxicity assay, SKOV3 ovarian cancer cells; format: cell-based, human; conditions: 48 h incubation
Protocol: as §1, §2, §3, §4

[4] = system: HCT116 and SKOV3; experiment: MTT assay, statements pooled over both cancer cell lines; format: cell-based; conditions: Homo sapiens, read-out: IC50 on the tested cancer cell lines
Protocol: as §1, with “Then, the medium was discarded and approximately 70 μl of DMSO was used and the resulted solution was vigorously mixed to dissolve and remove the residual tetrazolium and purple formazan crystals in each well.” left out, “Stock solutions of all the tested compounds were prepared in DMSO, while the final dilutions were made with distilled water in order to maintain a maximum concentration of 0.5% DMSO per well.” left out, “Curves were fit using Graph Pad Prism as described in the Methods section.[19]” left out
All the evaluated N-Mannich bases (2a–2d, 3a–3h and 4a–4d) were investigated for anti-proliferative activity against two cancer cell lines, HCT116 (human colon cancer) and KOV3 (human ovarian carcinoma). […] After 24 and 48 h of incubation, cell viability was measured by the [3-(4,5-dimethylthiazol-2-yl)-2,5-diphenyltetrazolium bromide] […]

Row | IC50 [4] | SMILES | IC50 [1] | IC50 ([2]; Homo sapiens, HCT-116, 48 h) | IC50 ([3]; Homo sapiens, SK-OV-3, 48 h) | IC50 [2] | IC50 [3]
1 | – | O=C1C(=O)N(CN2CCN(c3cnc4ccccc4n3)CC2)c2ccccc21 [2a, 1-((4-(quinoxalin-2-yl)piperazin-1-yl)methyl) indoline-2,3-dione] | 83.6 µM | 7.03 µM | 7.67 µM | – | –
2 | – | O=C1C(=O)N(CN2CCN(c3cnc4ccccc4n3)CC2)c2ccc(Br)cc21 [2b, 5-bromo-1-((4-(quinoxalin-2-yl)piperazin-1-yl)methyl) indoline-2,3-dione] | 58.1 µM | 5.12 µM | 5.43 µM | – | –
3 | – | O=C1C(=O)N(CN2CCN(c3cnc4ccccc4n3)CC2)c2ccc(Cl)cc21 [2c, 5-chloro-1-((4-(quinoxalin-2-yl)piperazin-1-yl)methyl) indoline-2,3-dione] | 82 µM | 6.06 µM | 6.49 µM | – | –
4 | – | Cc1ccc2c(c1)C(=O)C(=O)N2CN1CCN(c2cnc3ccccc3n2)CC1 [2d, 5-methyl-1-((4-(quinoxalin-2-yl)piperazin-1-yl)methyl) indoline-2,3-dione] | 58.1 µM | 5 µM | 5.3 µM | – | –
5 | – | NC(=O)NN=C1C(=O)N(CN2CCN(c3cnc4ccccc4n3)CC2)c2ccccc21 [3a, 2-(2-oxo-1-((4-(quinoxalin-2-yl)piperazin-1-yl)methyl)indolin-3-ylidene) hydrazine-1-carboxamide] | 13.5 µM | 1.99 µM | 2.21 µM | – | –
6 | – | NC(=S)N/N=C1/C(=O)N(CN2CCN(c3cnc4ccccc4n3)CC2)c2ccccc21 [3b, 2-(2-oxo-1-((4-(quinoxalin-2-yl)piperazin-1-yl)methyl)indolin-3-ylidene) hydrazine-1-carbothioamide] | 24.6 µM | 3.03 µM | 3.38 µM | – | –
7 | – | NC(=O)N/N=C1/C(=O)N(CN2CCN(c3cnc4ccccc4n3)CC2)c2ccc(Br)cc21 [3c, 2-(5-bromo-2-oxo-1-((4-(quinoxalin-2-yl)piperazin-1-yl)methyl)indolin-3-ylidene) hydrazine-1-carboxamide] | 35.9 µM | 3.35 µM | 3.52 µM | – | –
8 | – | NC(=S)N/N=C1/C(=O)N(CN2CCN(c3cnc4ccccc4n3)CC2)c2ccc(Br)cc21 [3d, 2-(5-bromo-2-oxo-1-((4-(quinoxalin-2-yl)piperazin-1-yl)methyl)indolin-3-ylidene) hydrazine-1-carbothioamide] | 49.6 µM | 4.85 µM | 5.03 µM | – | –
9 | – | NC(=O)N/N=C1/C(=O)N(CN2CCN(c3cnc4ccccc4n3)CC2)c2ccc(Cl)cc21 [3e, 2-(5-chloro-2-oxo-1-((4-(quinoxalin-2-yl)piperazin-1-yl)methyl)indolin-3-ylidene) hydrazine-1-carboxamide] | 37.6 µM | 4.3 µM | 4.96 µM | – | –
10 | – | NC(=S)N/N=C1/C(=O)N(CN2CCN(c3cnc4ccccc4n3)CC2)c2ccc(Cl)cc21 [3f, 2-(5-chloro-2-oxo-1-((4-(quinoxalin-2-yl)piperazin-1-yl)methyl)indolin-3-ylidene) hydrazine-1-carbothioamide] | 57.1 µM | 4.92 µM | 5.15 µM | – | –
11 | – | Cc1ccc2c(c1)C(=NNC(N)=O)C(=O)N2CN1CCN(c2cnc3ccccc3n2)CC1 [3g, 2-(5-methyl-2-oxo-1-((4-(quinoxalin-2-yl)piperazin-1-yl)methyl)indolin-3-ylidene)hydrazine-1-carboxamide] | 22.8 µM | 2.92 µM | 3.25 µM | – | –
12 | – | Cc1ccc2c(c1)/C(=N\NC(N)=S)C(=O)N2CN1CCN(c2cnc3ccccc3n2)CC1 [3h, 2-(5-methyl-2-oxo-1-((4-(quinoxalin-2-yl)piperazin-1-yl)methyl)indolin-3-ylidene) hydrazine-1-carbothioamide] | 26.6 µM | 3.23 µM | 3.46 µM | – | –
13 | – | CN(C)C(=N)NC(=N)N=C1C(=O)N(CN2CCN(c3cnc4ccccc4n3)CC2)c2ccccc21 [4a, N’-[4-(quinoxaline-2-yl)-piperazine-1-yl]methyl-1-H-indole,2,3-dion-3-metformin] | 9.11 µM | 1.23 µM | 1.51 µM | – | –
14 | < 1 µM | CN(C)C(=N)NC(=N)/N=C1/C(=O)N(CN2CCN(c3cnc4ccccc4n3)CC2)c2ccc(Br)cc21 [4b, N′-[4-(quinoxaline-2-yl)-piperazine-1-yl]methyl-5-bromo-1-H-indole,2,3-dion-3-metformin] | 6.95 µM | 0.45 µM | 0.48 µM | 0.458 µM | 0.488 µM
15 | < 1 µM | CN(C)C(=N)NC(=N)/N=C1/C(=O)N(CN2CCN(c3cnc4ccccc4n3)CC2)c2ccc(Cl)cc21 [4c, N′-[4-(quinoxaline-2-yl)-piperazine-1-yl]methyl-5-chloro-1-H-indole,2,3-dion-3-metformin] | 6.81 µM | 0.39 µM | 0.44 µM | 0.392 µM | 0.44 µM
16 | – | Cc1ccc2c(c1)/C(=N\C(=N)NC(=N)N(C)C)C(=O)N2CN1CCN(c2cnc3ccccc3n2)CC1 [4d] | 10 µM | 1.54 µM | 1.72 µM | – | –
